From patent US9688695B2, “Imidazothiadiazole and imidazopyrazine derivatives as protease activated receptor 4 (PAR4) inhibitors for treating platelet aggregation” (BRISTOL-MYERS SQUIBB COMPANY, priority 2012, dated 2017)

Assays:
[1] = test system: carotid artery thrombosis; experiment: Cynomolgus monkey electrolytic injury-induced carotid artery thrombosis model; assay type: in vivo; conditions: oral, electrically-induced arterial thrombus model
Source text: The efficacy of the PAR4 antagonists of the present invention in preventing thrombosis can also be measured in a variety of in vivo assays. Exemplary mammals that can provide models of thrombosis and hemostasis to test the effectiveness of the PAR4 antagonists of the present invention as antithrombotic agents include, but are not limited to, guinea pigs and primates. Relevant efficacy models include, but are not limited to, electrolytic injury-induced carotid artery thrombosis, FeCl3-induced carotid artery thrombosis and arteriovenous-shunt thrombosis. […]
On the day of the study, compounds or vehicles were administered orally at 1 to 2 hours before the experiment. […] Blood pressure and heart rate were monitored to maintain normal vital signs.
Carotid blood flow was measured with an appropriately sized TRANSONIC® flow probe and a TRANSONIC® perivascular flowmeter (TS420 Model, Transonic Systems Inc., Ithaca, N.Y.). It was continuously recorded over a 90-min period to monitor thrombosis-induced occlusion. Integrated carotid blood flow was measured by the area under the flow-time curve. It was expressed as percent of total control carotid blood flow, which would result if control blood flow had been maintained continuously for 90 min. […]

[2] = test system: carotid artery thrombosis; experiment: cynomolgus monkey electrolytic injury-induced carotid artery thrombosis model; assay type: in vivo

Structure (SMILES): COc1cc(OCc2csc(-c3ccccc3)n2)c2cc(-c3cn4nc(OC)sc4n3)oc2c1 [Example 3, 2-Methoxy-6-(6-methoxy-4-((2-phenylthiazol-4-yl)methoxy)benzofuran-2-yl)imidazo[2,1-b][1,3,4]thiadiazole]
- antithrombotic efficacy (dose response, FIG. 1C) [1]: demonstrating the in vivo antithrombotic efficacy
- antithrombotic efficacy (FIG. 1C) [2]: antithrombotic efficacy
